# Assay results as given in PubChem BioAssay (NCI).
#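 Briefly, cells in 96-well plates were exposed to five compound concentrations for 48 h, and endpoints were estimated by linear interpolation. At the GI50, growth is halved. TGI is the concentration that stops growth completely.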
# Experiments:
# Experiment in all cases: NCI-60 cell line screen, 48 h
# SK-MEL-5 melanoma = tested on: SK-MEL-5 melanoma
# SNB-75 CNS = tested on: SNB-75 CNS
# IGROV1 ovarian = tested on: IGROV1 ovarian
# SF-268 CNS = tested on: SF-268 CNS
# MALME-3M melanoma = tested on: MALME-3M melanoma
# ACHN renal = tested on: ACHN renal
# SF-295 CNS = tested on: SF-295 CNS
# DLD-1 colon = tested on: DLD-1 colon
# NCI-H522 lung = tested on: NCI-H522 lung
# LXFL 529 NSCLC = tested on: LXFL 529 NSCLC
Compound,TGI (SK-MEL-5 melanoma) [µM],TGI (SNB-75 CNS) [µM],TGI (IGROV1 ovarian) [µM],TGI (SF-268 CNS) [µM],TGI (MALME-3M melanoma) [µM],TGI (ACHN renal) [µM],TGI (SF-295 CNS) [µM],TGI (DLD-1 colon) [µM],TGI (NCI-H522 lung) [µM],TGI (LXFL 529 NSCLC) [µM],GI50 (SK-MEL-5 melanoma) [µM],GI50 (SNB-75 CNS) [µM],GI50 (IGROV1 ovarian) [µM],GI50 (SF-268 CNS) [µM],GI50 (MALME-3M melanoma) [µM],GI50 (ACHN renal) [µM],GI50 (SF-295 CNS) [µM],GI50 (DLD-1 colon) [µM],GI50 (NCI-H522 lung) [µM],GI50 (LXFL 529 NSCLC) [µM]
COc1cc2c(cc1O)CN1CCC23C=C[C@@H](O)CC13 (stereo not given in full),> 100,> 100,> 100,> 100,> 100,> 100,> 100,> 100,> 100,> 100,–,–,–,–,–,–,–,–,–,–
Cc1cc(C)c2c(c1)N[S@@](=O)S2,80.6,> 100,> 100,34.5,58.1,65.7,> 100,59.2,31.9,29.4,–,–,–,–,–,–,–,–,–,–
CCOC(=O)C(NO)C(Sc1ccccc1)c1ccc(OC)cc1 (stereo not given),> 100,> 100,> 100,> 100,> 100,> 100,> 100,> 100,> 100,> 100,–,–,–,–,–,–,–,–,–,–
COc1cc(C2C(C(=O)Nc3ccc([N+](=O)[O-])cc3)=C(C)NC(C)=C2C(=O)Nc2ccc([N+](=O)[O-])cc2)ccc1O,> 100,> 86.3,65.4,> 72.6,60,> 67.2,65.7,> 68.6,39.7,64,–,–,–,–,–,–,–,–,–,–
CN(C)C(=O)NC(=S)N(C)C,> 100,> 100,> 100,> 100,> 100,> 100,> 100,> 100,> 100,> 100,–,–,–,–,–,–,–,–,–,–
CC(=O)[CH-]C(=O)c1ccccc1.CC(=O)[CH-]C(=O)c1ccccc1.CC(C)CCC[C@H](C)C1CCC2[C@@H]3CC=C4C[C@@H]([O-])CC[C@]4(C)C3CC[C@@]21C.CC(C)CCC[C@H](C)C1CCC2[C@@H]3CC=C4C[C@@H]([O-])CC[C@]4(C)C3CC[C@@]21C.Cl.[Ti+4] (stereo not given in full),> 25,> 25,> 25,> 25,> 25,> 25,> 25,> 25,> 25,> 25,> 25,22.1,> 25,> 25,21.4,> 25,> 25,> 25,> 25,> 25
COc1cc(/C=C/c2ccc(Br)cc2)cc(OC)c1OC,20.4,39.5,> 100,31.2,76.2,> 100,40.2,> 100,46.1,> 100,–,–,–,–,–,–,–,–,–,–
CC1=C(C(=O)NCc2ccccc2)C(c2ccccc2C)C(C(=O)NCc2ccccc2)=C(C)N1,> 100,> 94.1,> 72.3,57.6,> 100,38.4,> 85.5,51.3,66.2,> 95.9,–,–,–,–,–,–,–,–,–,–
CN(C)CCn1cnc2ncccc2c1=O,> 100,> 100,> 100,> 100,> 100,> 100,> 100,> 100,> 100,> 100,–,–,–,–,–,–,–,–,–,–
CCCCCCCCCCSC(=O)NC,45.6,> 100,> 100,> 100,> 100,> 100,> 100,> 100,54.6,> 100,–,–,–,–,–,–,–,–,–,–
CCCCCCCCCCCCCCCCc1c(C(=O)OC)nc(NN)[nH]c1=O,> 50,> 50,> 50,> 50,> 50,> 50,> 50,> 50,> 50,> 50,–,–,–,–,–,–,–,–,–,–
